“And” between values parts separate entries of the source, which are not always exact repeats. Equal entries are not always repeated. “Also recorded” adds a separate entry of the source.
Tests used:
TNF-α [1] = assay: Serum TNF-α by ELISA in rats with chronic peritoneal sepsis (200 mg/kg cecal slurry ip); type: in vivo, rat; conditions: septic rats; for Effect on serum TNF-α response to sepsis at 4 hours / Effect on serum TNF-α response to sepsis at 24 hours: versus saline-treated septic group; for Serum TNF-α at 4 hours after sepsis induction / Serum TNF-α at 24 hours after sepsis induction: treated at time of sepsis induction
Procedure: (§1) Studies were conducted to determine if manipulation of adenosine-mediated events would result in alterations in the TNF-α response in this model. At the time of sepsis induction, rats were treated in one of four ways. One group received only 0.9% normal saline as a vehicle control (No Rx; n=6). […] The third group received the adenosine deaminase inhibitor, erythro-9-(2-hydroxy-3-nonyl)adenine (EHNA; 1 μmole/kg+1 μmole/kg/hr; iv; n=3). A fourth group received the adenosine receptor antagonist 8-sulfophenyltheophylline (SPT; 400 μg/kg/8 hours; n=5).
(§2) Sepsis was induced under pentobarbital anesthesia (50 mg/kg) in each rat by intraperitoneal (ip) injection of 200 mg/kg rat cecal contents mixed as a slurry in 5% dextrose in water (D5W). […] Non-septic controls received an equivalent volume ip injection of D5W. Polyethylene catheters (Intramedic PE-50, Baxter) were inserted into the right internal jugular vein and right carotid artery. The jugular catheter was used for venous access (drug infusions; volume replacement, etc). The carotid catheter was used to obtain arterial blood samples, and to monitor arterial blood pressure and heart rate. The catheters were secured in their respective vessels, tunneled subcutaneously to exit in the interscapular region, and filled with heparinized saline (50 units/ml 0.9% normal saline). Incisions were closed in layers using 3-0 silk. Rats were allowed to recover from anesthetic and provided food and water ad libitum,
Serum and tissue tumor necrosis factor-α (TNF-α) concentrations were determined by enzyme-linked immunosorbant assay. Samples of serum, liver, and spleen were collected, rapidly weighed, and frozen in liquid nitrogen. On the day of assay, tissues are added to labeled tubes containing lysis buffer (volume=10 ml/gram wt. with 1:10 dilution) and kept on ice. The lysis buffer is 20 mM Tris (pH 7.4) containing […] phenylmethylsulfonylflouride (PMSF), […] leupeptin, 0.7 g/ml pepstatin, and 2.0 g/ml aprotinin to inhibit proteases. Samples were immediately homogenized using five 3 see bursts, washing grinding pistol (3×) between samples with phosphate buffered saline. Samples are then centrifuged for 20 min at 2200 RPM, 4° C. The supernatant was removed and used for TNF-α measurements. Briefly, each microplate well contained 50 μl of assay diluent. To each well, 50 μl of standard, control, or serum/homogenate supernatant sample were added and mixed on an orbital plate shaker. Plates were incubated at room temperature for 2 hours. Each well was then aspirated and washed with wash buffer 4 times. After final aspiration of wash buffer, 100 μl of rat TNF-α conjugate was added to each well. Wells were then covered and incubated for 2 hours at room temperature. At the end of the incubation, the aspiration/wash procedure was repeated 4 times, after which 100 μl of stabilized chromogen solution was added to each well. Next, plates were incubated for 45 minutes at room temperature in a dark area. After this final incubation period, 100 μl stopping solution was added to each well. Optical density of each well at […] was determined within 30 minutes using a Biotek Instruments EL312e microtiter plate reader. Concentrations of TNF-α were calculated from the standard curves.
At the time of sepsis induction, rats were treated in one of three ways. One group received only 0.9% normal saline as a vehicle control (VEH, n=6, where n is the number of rats). […] A third group received the adenosine receptor antagonist, 8-sulfophenyltheo-phylline (SPT; 400 μg/kg/8 h; n=5). Serum TNF-α (pg/ml) was determined at 4 and 24 hours after sepsis induction by ELISA.
Male SD rats (350-400 g) were made septic by IP introduction of a 200 mg/kg cecal slurry. […] TNF-α (pg/ml) was determined at 4 and 24 hours after sepsis induction by ELISA.

septic rats [2] = assay: Capillary leakage: examination of peritoneal cavity and bowel of septic rats; type: in vivo, rat; conditions: for Volume of fluid in the peritoneal cavity: untreated 2-3 ml
adenosine receptors = assay: Regional vascular resistance by radiolabelled microspheres 24 hours after sepsis induction; type: in vivo, rat; conditions: septic rats
Procedure: Systemic vascular responses were examined 24 hours after induction of sepsis in the presence or absence of adenosine receptor blockade in septic and non-septic rats using radiolabelled microspheres. For these experiments, the surgical procedure involving vascular access was modified to include a catheter in the left ventricle of the heart (via the carotid artery), and a catheter in the tail artery (Intramedic PE-50, Baxter) to permit reference blood withdrawal and blood pressure monitoring. Regional blood flows were determined using radiolabelled microspheres. The microspheres ([…] New England Nuclear, Boston), labeled with one of four isotopes (^46Sc, ^85Sr, ^95Nb, ^141Ce), were mixed in 0.9% normal saline with 0.01 % Tween-80 added to prevent aggregation. The microspheres were adjusted to provide a minimum of 400 microspheres per tissue sample, and represented approximately 100,000-250,000 spheres per injection. The specific Isotopes and their order of injection were randomized in each experiment. with each injection representing a volume of 0.4 ml/injectate. The microspheres were sonicated for a minimum of 30 minutes, and vortexed vigorously for at least 30 seconds prior to injection. A reference withdrawal sample was taken at 0.33 ml/min from the tail artery catheter using a mechanical pump (Harvard Model 22). The reference withdrawal was started 10 seconds prior to injecting the isotopes, and continued for 150 seconds. […] Wet weights were obtained and all tissues were counted in a gamma spectrophotometer (Beckman 9000). Gamma activity in the injectate vials was counted prior to the experiments. Actual injected amounts for each isotope were calculated by subtracting any isotope counts remaining in the vials, syringes, and catheters used for injection. Cardiac output (CO) was determined by dividing the total injectate counts for any given isotope by the counts in the reference sample and multiplying by the fixed withdrawal rate of the reference sample. The results for cardiac output are expressed as ml/min. Tissue counts attributed to each isotope were determined after subtracting the overlap of energy spectra from higher energy isotopes (Compton back-scatter). Individual tissue blood flows were determined by dividing the counts obtained in the tissue by the reference withdrawal counts and multiplying by the reference withdrawal rate. Tissue blood flows were then normalized to wet weight was calculated by adding the individual tissue blood flows of the stomach, small intestine, cecum, colon, pancreas, hepatic artery and spleen, and dividing by the liver weight. Regional tissue vascular resistances were calculated from regional blood flows and arterial blood pressure, according to the equation: […]

septic rats [3] = assay: Survival of septic rats to day 3; type: in vivo, rat; conditions: pentostatin 5 mg/kg/12 h; 8-SPT 400 μg/kg/8 h; 3 days post-sepsis
Procedure: as §1
as §2, with “The catheters were secured in their respective vessels, tunneled subcutaneously to exit in the interscapular region, and filled with heparinized saline (50 units/ml 0.9% normal saline). Incisions were closed in layers using 3-0 silk. Rats were allowed to recover from anesthetic and provided food and water ad libitum,” left out
(§3) At the time of sepsis induction, rats were treated in one of three ways. […] Serum TNF-α (pg/ml) was determined at 4 and 24 hours after sepsis induction by ELISA.

septic rats [4] = assay: Blood pressure and heart rate in septic rats; conditions: chronic treatment
Procedure: as §1
as §2, with “The catheters were secured in their respective vessels, tunneled subcutaneously to exit in the interscapular region, and filled with heparinized saline (50 units/ml 0.9% normal saline). Incisions were closed in layers using 3-0 silk. Rats were allowed to recover from anesthetic and provided food and water ad libitum,” left out
as §3

adenosine deaminase = target: T1, adenosine deaminase (Homo sapiens, UniProt P00813); conditions: FIG. 10 legend; cited from earlier work
T1 sequence (P00813 1-363): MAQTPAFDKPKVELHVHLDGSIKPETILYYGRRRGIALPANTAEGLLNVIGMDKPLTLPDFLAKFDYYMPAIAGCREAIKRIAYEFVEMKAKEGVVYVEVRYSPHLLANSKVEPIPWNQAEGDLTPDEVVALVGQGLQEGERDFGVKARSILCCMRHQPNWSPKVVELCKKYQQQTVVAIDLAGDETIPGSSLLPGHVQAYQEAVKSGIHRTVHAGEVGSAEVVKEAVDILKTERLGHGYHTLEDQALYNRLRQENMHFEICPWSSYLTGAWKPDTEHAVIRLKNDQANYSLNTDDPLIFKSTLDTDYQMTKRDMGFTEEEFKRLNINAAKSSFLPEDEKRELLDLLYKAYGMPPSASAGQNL

xanthine oxidase = target: T2, xanthine oxidase (Rattus norvegicus, UniProt P22985); conditions: 10 nM, hypoxic perfused rat hearts; cited from earlier work
T2 construct: host or cells: isolated perfused rat heart

sTNFRI or p55 = assay: Circulating soluble TNF receptor I in fluid-resuscitated sepsis-induced SIRS; type: in vivo, rat; conditions: 24 hours after SIRS induction; 1 mg/kg pentostatin 2 hours after induction
Procedure: (§4) SIRS was induced secondary to sepsis by ip introduction of […] cecal matter in 5 ml/kg D5W.
(§5) It is increasingly apparent that feedback between pro and anti-inflammatory processes is critically important to the clinical outcome from SIRS, as taught by Bone (Bone, 1996). The balance between complementary pro-and anti-inflammatory molecules is typified by TNF α and its soluble receptors, sTNF types I and II. The ability of ADA inhibition to restore balance to these complimentary molecules in the SIRS responses was tested with a more clinically relevant addition of fluid resuscitated sepsis. […] Further evidence of a complex, modulatory mode of action is indicated by IL-10 concentrations in the liver and spleen.

IL-6 = assay: Serum IL-6 in fluid-resuscitated sepsis-induced SIRS; type: in vivo, rat; conditions: 24 hours after SIRS induction, 1 mg/kg pentostatin 2 hours after induction
Procedure: as §4, §5

TNF-α [5] = assay: Serum TNF-α in fluid-resuscitated sepsis-induced SIRS; type: in vivo, rat; conditions: 24 hours after SIRS induction, 1 mg/kg pentostatin 2 hours after induction
Procedure: as §4, §5
Serum and tissue tumor necrosis factor-α (TNF-α) concentrations were determined by enzyme-linked immunosorbant assay. Samples of serum, liver, and spleen were collected, rapidly weighed, and frozen in liquid nitrogen. On the day of assay, tissues are added to labeled tubes containing lysis buffer (volume=10 ml/gram wt. with 1:10 dilution) and kept on ice. […] Optical density of each well at […] was determined within 30 minutes using a Biotek Instruments EL312e microtiter plate reader. Concentrations of TNF-α were calculated from the standard curves.

TNF-α, IL-1 beta, IL-10 = assay: Cytokine concentrations after ip E coli endotoxin (LPS), pentostatin dose response (FIG. 16); type: in vivo, rat; conditions: response to 2 mg/kg LPS (endotoxin), 2 hours after ip injection
Excerpt: Lower doses than this were unable to consistently suppress TNF-α and IL-1 beta with concommittant stimulation of the anti-inflammatory cytokine, IL-10.

SIRS rats = assay: Survival up to 6 days after SIRS induction secondary to sepsis (FIG. 15); type: in vivo, rat; conditions: 1 mg/kg
Procedure: All rats received 50 ml/kg 0.9% normal saline iv 2 hours after SIRS induction.
Inhibition of up to 100% can be maintained for no more than 3 consecutive days, after which ADA activity should be allowed to return to at least 50% of baseline values before another dose of the inhibitor can be given. […] One-two hours after administration of a starting dose of the inhibitor, adenosine deaminase activity can be measured in various bodily fluids, tissues, dialysates, or cells by spectrophotometric methods according to the method of Vielh and Castellazzi, or other appropriate measurement that provides information regarding ADA enzyme activity. Measurement of adenosine deaminase activity can also be used to monitor the return of ADA activity after therapeutic inhibition for the treatment or prevention of SIRS.

[6] = test system: lipid peroxidation (TBARS); assay: Thiobarbituric acid reactive substances (TBARS) in jejunum of septic rats; conditions: 24 hours, versus saline (No Rx)
sTNFRII or p75 = assay: Circulating soluble TNF receptor II in fluid-resuscitated sepsis-induced SIRS; type: in vivo, rat; conditions: 24 hours after SIRS induction; 1 mg/kg pentostatin 2 hours after induction
Procedure: as §4, §5

IL-10 = IL-10 in serum, liver and spleen in fluid-resuscitated SIRS; type: in vivo, rat; conditions: pentostatin treatment
Procedure: as §4, §5

T2 sequence (P22985 whole entry, the tested form may be a part): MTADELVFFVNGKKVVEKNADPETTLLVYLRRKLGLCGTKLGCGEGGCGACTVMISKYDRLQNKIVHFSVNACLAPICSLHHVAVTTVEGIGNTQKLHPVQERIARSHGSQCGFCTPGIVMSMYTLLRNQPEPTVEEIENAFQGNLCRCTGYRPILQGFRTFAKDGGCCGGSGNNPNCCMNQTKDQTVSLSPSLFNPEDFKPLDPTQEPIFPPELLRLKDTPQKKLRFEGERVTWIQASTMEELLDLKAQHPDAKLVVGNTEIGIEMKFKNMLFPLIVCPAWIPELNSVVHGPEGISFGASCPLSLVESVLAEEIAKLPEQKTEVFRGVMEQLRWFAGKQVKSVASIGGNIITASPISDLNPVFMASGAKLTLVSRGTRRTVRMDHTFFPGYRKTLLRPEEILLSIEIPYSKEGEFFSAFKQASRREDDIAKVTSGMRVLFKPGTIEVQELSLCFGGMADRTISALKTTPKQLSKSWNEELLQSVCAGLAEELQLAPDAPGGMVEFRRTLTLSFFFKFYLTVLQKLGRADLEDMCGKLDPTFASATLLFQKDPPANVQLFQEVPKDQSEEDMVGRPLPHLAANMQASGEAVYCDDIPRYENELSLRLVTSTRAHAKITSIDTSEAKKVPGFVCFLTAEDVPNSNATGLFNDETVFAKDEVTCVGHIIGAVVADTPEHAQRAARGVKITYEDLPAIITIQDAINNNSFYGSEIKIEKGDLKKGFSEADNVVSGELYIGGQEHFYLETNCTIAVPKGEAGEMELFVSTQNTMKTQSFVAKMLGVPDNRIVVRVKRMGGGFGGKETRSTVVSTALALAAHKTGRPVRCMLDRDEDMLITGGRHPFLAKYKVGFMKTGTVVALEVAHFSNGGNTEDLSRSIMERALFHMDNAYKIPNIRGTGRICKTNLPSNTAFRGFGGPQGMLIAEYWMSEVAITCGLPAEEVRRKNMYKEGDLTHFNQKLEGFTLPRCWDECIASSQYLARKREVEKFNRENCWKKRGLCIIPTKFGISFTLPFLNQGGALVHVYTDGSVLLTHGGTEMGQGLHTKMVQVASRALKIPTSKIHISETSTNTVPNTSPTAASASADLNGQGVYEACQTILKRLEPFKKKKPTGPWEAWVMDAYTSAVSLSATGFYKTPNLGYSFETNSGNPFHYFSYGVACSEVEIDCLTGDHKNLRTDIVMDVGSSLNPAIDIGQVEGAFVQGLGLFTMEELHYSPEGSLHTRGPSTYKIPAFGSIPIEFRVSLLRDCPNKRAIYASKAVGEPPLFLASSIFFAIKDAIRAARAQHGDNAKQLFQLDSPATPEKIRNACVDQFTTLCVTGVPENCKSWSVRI

Molecule | Effect on serum TNF-α response to sepsis at 4 hours (TNF-α [1]) | Effect on serum TNF-α response to sepsis at 24 hours (TNF-α [1]) | Serum TNF-α at 4 hours after sepsis induction (TNF-α [1]) [pg/mL] | Serum TNF-α at 24 hours after sepsis induction (TNF-α [1]) [pg/mL] | Capillary leakage (septic rats [2]) | Small bowel hemorrhage (septic rats [2]) | Volume of fluid in the peritoneal cavity (septic rats [2]) [mL] | Brain (cerebral) vascular resistance (adenosine receptors) | Septic rats surviving to day 3 (septic rats [3]) | Blood pressures or heart rates versus saline-treated septic rats (septic rats [4]) | Enzyme-inhibitory activity against adenosine deaminase (adenosine deaminase) | other results
8-sulfophenyltheophylline [8-SPT] | not at 4 hours | amplified the response | 1167 ± 428 | 2479 ± 875 | exacerbation of capillary leakage | small bowel hemorrhaging was evident | 3 to 5 | exception of changes in cerebral vascular resistance | 2 of the 5 and 1 of 5 | neither the adenosine deaminase inhibition nor the 8-SPT groups were blood pressures or heart rates significantly different; also recorded: neither the groups treated with pentostatin nor the groups treated with 8-SPT were blood pressures or heart rates significantly different |  | 
OCC1OC(n2cnc3c2N=CNCC3O)C(F)C1O (stereo not shown) [2′-deoxy-2′-fluorocoformycin] |  |  |  |  |  |  |  |  |  |  | high enzyme-inhibitory activities | 
OC[C@H]1O[C@@H](n2cnc3c2N=CNC[C@@H]3O)[C@H](F)[C@@H]1O [2′-deoxy-8-epi-2′-fluorocoformycin] |  |  |  |  |  |  |  |  |  |  | high enzyme-inhibitory activities | 
Cn1c(=O)c2[nH]c(-c3ccccc3)nc2n(C)c1=O [8-PTH, 8-phenyltheophylline] |  |  |  |  |  |  |  | caused increases |  |  |  | Skeletal muscle vascular resistance (adenosine receptors): caused increases; Total hepato-splanchnic vascular resistance (adenosine receptors): caused increases
Oc1ncnc2[nH]ncc12 [Allopurinol] |  |  |  |  |  |  |  |  |  |  |  | Uric acid production (xanthine oxidase): below detectable levels
OC[C@H]1O[C@@H](n2cnc3c2NC=NC[C@H]3O)C[C@@H]1O [pentostatin, (R)-3-(2-deoxy-beta-D-erythropentofuranosyl)-3,6,7,8-tetrahydro-imidazo[4,5-d]-[1,3] diazepin-8-ol] | attenuation of this response | attenuation of this response | 592 ± 62 | 671 ± 175 | amelioration of capillary leakage | little to no evidence of small bowel hemorrhage | 0 to 1 |  | 4 of the 5 and 4 of 5 | neither the groups treated with pentostatin nor the groups treated with 8-SPT were blood pressures or heart rates significantly different |  | Circulating sTNFRI (p55) (sTNFRI or p55): 4624 ± 404 pg/mL; Serum IL-6 (IL-6): 5525 ± 1435 pg/mL; Serum TNF-α (TNF-α [5]): 20.3 ± 14.8 pg/mL; Dose with maximal effect on modulating cytokine concentrations (TNF-α, IL-1 beta, IL-10): 1 mg/kg; Mortality in SIRS model (SIRS rats): effective in reducing mortality; Jejunum tissue TBARS during sepsis [6]: diminution of tissue TBARS; Circulating sTNFRII (p75) (sTNFRII or p75): 16525 ± 1226 pg/mL; Serum concentrations of IL-10 (IL-10; FIG. 14(A)): unaffected; IL-10 concentrations in the liver and spleen (IL-10; FIG. 14(B) and 14(C)): elevated

— patent US20020086835A1, “Use of adenosine deaminase inhibitors to treat systemic inflammatory response syndrome” (priority 2000, published 2002)
